Four molecules from patent US8637268B2, “Determination of von Willebrand Factor cleavage by ADAMTS13” (Puget Sound Blood Center, priority 2010, dated 2014) can be followed below.

Holding throughout (assay type): biochemical
One assay addresses T1, VWF (Homo sapiens, UniProt P04275).
T1 construct: Cleavage of VWF by ADAMTS13 in citrated pooled normal plasma; tissue Precision BioLogic; host or cells: citrated pooled normal plasma, diluted 10-fold
Briefly: Cleavage of VWF by endogenous ADAMTS13 in citrated pooled normal plasma, multimer pattern on agarose gel. On the procedure: Cleavage of VWF by ADAMTS13 in citrated pooled normal plasma was examined by incubating 10-fold diluted plasma at 37° C. for various times. Monoclonal ADAMTS13 antibody or control antibody (final concentration: 20 μg/ml) was added to an aliquot of the diluted plasma. ADAMTS13 cleavage was stopped at indicated times with EDTA.
(§1) The VWF multimer pattern was evaluated by 1.5% agarose gel electrophoresis followed by Western blotting with a HRP-conjugated polyclonal VWF antibody (Dako, Inc., Carpinteria, Calif.) previously described (Chen et al., J Clin Invest, Submitted (2010)).

In assay [1] the target is T2, short A2 (Met1473-Gly1674) (Homo sapiens, UniProt P04275).
T2 construct: short A2 (Met1473-Gly1674); made in house; host or cells: HEK293 Tet-On cells
Nature of the assay: ADAMTS13 cleavage of recombinant VWF fragment short A2 (SDS-PAGE, western blotting). Particulars: 1.5 M urea or 1.5 mg/ml ristocetin, 37° C., 5 hr (FIG. 4). The text has this:
(§2) Recombinant ADAMTS13 (Ala75-Thr1427) and VWF fragments A1A2A3 (Asp1261-Ile1878), long A2 (Asp1459-Gly1674), and short A2 (Met1473-Gly1674) were expressed as fusion proteins with the pNBioSec vector (Mize et al., Protein Expr Purif, 57(2):280-289 (2008)) in HEK293 Tet-On cells as previously described (Chen et al., Blood, 115(3):706-712 (2010)). In this expression system, recombinant proteins were secreted with dual tags: an N-terminal biotin-tag and a C-terminal protein C epitope tag. Serum-free-cell-culture medium containing the secreted recombinant proteins was concentrated 10-fold by centrifugation over an Ultra-10K filter and desalted over Sephadex G25.
(§3) Plasma VWF was purified from cryoprecipitate as described previously (Chen et al., Blood, 115(3):706-712 (2010)). Cleavage of recombinant VWF fragments by ADAMTS13 was carried out at 37° C. for 5 hours with or without modulators. The reactions were stopped by EDTA (final concentration 10 mM). Cleavage products were analyzed by electrophoresis in 4-15% gradient polyacrylamide gels (Bio-Rad Laboratories, Hercules, Calif.) after reduction. […]
(§4) Cleavage of recombinant VWF fragments (1 μg/ml) by ADAMTS13 (0.15 μg/ml) was carried out at 37° C. for 5 hours in the presence of either 1.5 M urea, or 1.5 mg/ml ristocetin. […] Cleavage products were analyzed by electrophoresis in 4-15% gradient polyacrylamide gels after reduction. […]
Background: Immunoblotting shows a protein as a band on a membrane.

For the next assay, the target named is T3, A1A2A3 (Asp1261-Ile1878) (Homo sapiens, UniProt P04275).
T3 construct: VWF fragments A1A2A3 (Asp1261-Ile1878); made in house; host or cells: HEK293 Tet-On cells
Briefly: ADAMTS13 cleavage of recombinant VWF fragment A1A2A3 (SDS-PAGE, western blotting). Particulars: for ADAMTS13 cleavage of A1A2A3: 37° C., 5 hr (FIG. 2).
Description: as §2
(§5) Plasma VWF was purified from cryoprecipitate as described previously (Chen et al., Blood, 115(3):706-712 (2010)). Cleavage of recombinant VWF fragments by ADAMTS13 was carried out at 37° C. for 5 hours with or without modulators. The reactions were stopped by EDTA (final concentration 10 mM). Cleavage products were analyzed by electrophoresis in 4-15% gradient polyacrylamide gels (Bio-Rad Laboratories, Hercules, Calif.) after reduction. Cleavage products were transferred onto nitrocellulose membranes, blocked with 1% albumin in Tris-buffered saline with 0.05% Tween-20, probed with HRP-conjugated streptavidin (Thermal Scientific, Rockford, Ill.), and visualized with the Immobilon Western HRP substrate (Millipore).
(§6) Cleavage of recombinant VWF fragments (1 μg/ml) by ADAMTS13 (0.15 μg/ml) was carried out at 37° C. for 5 hours in the presence of either 1.5 M urea, or 1.5 mg/ml ristocetin. The reactions were stopped by EDTA. Cleavage products were analyzed by electrophoresis in 4-15% gradient polyacrylamide gels after reduction. Cleavage products were transferred onto nitrocellulose membranes, blocked with 1% albumin in Tris-buffered saline with 0.05% Tween-20, probed with HRP-conjugated streptavidin, and visualized with the Immobilon Western HRP substrate.

Assay [2] has as its target T4, long A2 (Asp1459-Gly1674) (Homo sapiens, UniProt P04275, D1472H).
T4 construct: long A2 (Asp1459-Gly1674); made in house; host or cells: HEK293 Tet-On cells
Nature of the assay: ADAMTS13 cleavage of recombinant VWF fragment long A2 (SDS-PAGE, western blotting). Conditions: in the presence of ristocetin, 37° C., 5 hr (FIG. 3).
Description: as §2, §3, §4

In the next assay the test system is A1A2 fragment. Nature of the assay: ADAMTS13 cleavage of recombinant VWF fragment A1A2 (SDS-PAGE, western blotting). On the procedure: as §5, §6
Another assay deals with T5, Multimeric VWF (Homo sapiens, UniProt P04275).
T5 construct: purified, multimeric VWF from plasma; from tissue
Briefly: Detection of methionine oxidation in VWF by mass spectrometry (HOCl-generating system MPO plus H2O2). On the procedure: Multimeric VWF was incubated with an HOC1-generating system containing 25 nM MPO plus H2O2 at various concentrations in PBS (pH 7.4) at 37° C. for 1 hr in the presence or absence of 1.0 mg/ml ristocetin. The oxidation reaction was stopped by the addition of excess free methionine. The oxidized protein was digested with trypsin and the peptides analyzed by nano liquid chromatography-electrospray ionization-tandem mass spectrometry (nanoLC-ESI-MS/MS).

In assay [3] the target is T6, purified multimeric plasma VWF (Homo sapiens, UniProt P04275).
T6 construct: Plasma VWF was purified from cryoprecipitate as described previously; from tissue; host or cells: plasma cryoprecipitate (VWF); HEK293 Tet-On cells (ADAMTS13)
Briefly: ADAMTS13 cleavage of purified multimeric plasma VWF, multimer pattern on agarose gel. Particulars: 0.75 and 1.0 mg/ml ristocetin, 37° C., under stasis (FIG. 1A). On the procedure: Cleavage of purified VWF (2 μg/ml) by recombinant ADAMTS13 (0.4 μg/ml) was performed at 37° C. in the absence or presence of urea or ristocetin. The reactions were stopped at the indicated times with EDTA (final concentration 10 mM).
as §1

[4] abbreviates: 1.0 mg/ml ristocetin versus buffer, 25 nM MPO plus H2O2, 1 hr (FIG. 6A).

T3 sequence (P04275 1261-1878, one chain of several): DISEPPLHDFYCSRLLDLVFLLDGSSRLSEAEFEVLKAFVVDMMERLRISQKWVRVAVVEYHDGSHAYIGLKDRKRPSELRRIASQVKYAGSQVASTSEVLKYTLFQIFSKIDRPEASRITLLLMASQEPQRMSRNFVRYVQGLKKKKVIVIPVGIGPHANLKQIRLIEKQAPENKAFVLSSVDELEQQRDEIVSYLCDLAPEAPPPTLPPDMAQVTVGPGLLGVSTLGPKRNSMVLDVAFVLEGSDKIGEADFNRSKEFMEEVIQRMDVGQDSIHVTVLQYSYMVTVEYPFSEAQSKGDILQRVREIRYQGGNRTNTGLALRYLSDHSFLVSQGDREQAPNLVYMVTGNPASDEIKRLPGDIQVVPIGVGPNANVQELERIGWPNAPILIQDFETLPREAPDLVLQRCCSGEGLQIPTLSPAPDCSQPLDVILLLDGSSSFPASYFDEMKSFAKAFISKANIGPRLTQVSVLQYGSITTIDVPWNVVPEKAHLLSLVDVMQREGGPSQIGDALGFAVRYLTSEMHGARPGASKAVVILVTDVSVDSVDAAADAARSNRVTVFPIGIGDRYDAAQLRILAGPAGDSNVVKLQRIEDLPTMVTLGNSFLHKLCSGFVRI
T5 sequence (P04275 764-2813 limits assumed): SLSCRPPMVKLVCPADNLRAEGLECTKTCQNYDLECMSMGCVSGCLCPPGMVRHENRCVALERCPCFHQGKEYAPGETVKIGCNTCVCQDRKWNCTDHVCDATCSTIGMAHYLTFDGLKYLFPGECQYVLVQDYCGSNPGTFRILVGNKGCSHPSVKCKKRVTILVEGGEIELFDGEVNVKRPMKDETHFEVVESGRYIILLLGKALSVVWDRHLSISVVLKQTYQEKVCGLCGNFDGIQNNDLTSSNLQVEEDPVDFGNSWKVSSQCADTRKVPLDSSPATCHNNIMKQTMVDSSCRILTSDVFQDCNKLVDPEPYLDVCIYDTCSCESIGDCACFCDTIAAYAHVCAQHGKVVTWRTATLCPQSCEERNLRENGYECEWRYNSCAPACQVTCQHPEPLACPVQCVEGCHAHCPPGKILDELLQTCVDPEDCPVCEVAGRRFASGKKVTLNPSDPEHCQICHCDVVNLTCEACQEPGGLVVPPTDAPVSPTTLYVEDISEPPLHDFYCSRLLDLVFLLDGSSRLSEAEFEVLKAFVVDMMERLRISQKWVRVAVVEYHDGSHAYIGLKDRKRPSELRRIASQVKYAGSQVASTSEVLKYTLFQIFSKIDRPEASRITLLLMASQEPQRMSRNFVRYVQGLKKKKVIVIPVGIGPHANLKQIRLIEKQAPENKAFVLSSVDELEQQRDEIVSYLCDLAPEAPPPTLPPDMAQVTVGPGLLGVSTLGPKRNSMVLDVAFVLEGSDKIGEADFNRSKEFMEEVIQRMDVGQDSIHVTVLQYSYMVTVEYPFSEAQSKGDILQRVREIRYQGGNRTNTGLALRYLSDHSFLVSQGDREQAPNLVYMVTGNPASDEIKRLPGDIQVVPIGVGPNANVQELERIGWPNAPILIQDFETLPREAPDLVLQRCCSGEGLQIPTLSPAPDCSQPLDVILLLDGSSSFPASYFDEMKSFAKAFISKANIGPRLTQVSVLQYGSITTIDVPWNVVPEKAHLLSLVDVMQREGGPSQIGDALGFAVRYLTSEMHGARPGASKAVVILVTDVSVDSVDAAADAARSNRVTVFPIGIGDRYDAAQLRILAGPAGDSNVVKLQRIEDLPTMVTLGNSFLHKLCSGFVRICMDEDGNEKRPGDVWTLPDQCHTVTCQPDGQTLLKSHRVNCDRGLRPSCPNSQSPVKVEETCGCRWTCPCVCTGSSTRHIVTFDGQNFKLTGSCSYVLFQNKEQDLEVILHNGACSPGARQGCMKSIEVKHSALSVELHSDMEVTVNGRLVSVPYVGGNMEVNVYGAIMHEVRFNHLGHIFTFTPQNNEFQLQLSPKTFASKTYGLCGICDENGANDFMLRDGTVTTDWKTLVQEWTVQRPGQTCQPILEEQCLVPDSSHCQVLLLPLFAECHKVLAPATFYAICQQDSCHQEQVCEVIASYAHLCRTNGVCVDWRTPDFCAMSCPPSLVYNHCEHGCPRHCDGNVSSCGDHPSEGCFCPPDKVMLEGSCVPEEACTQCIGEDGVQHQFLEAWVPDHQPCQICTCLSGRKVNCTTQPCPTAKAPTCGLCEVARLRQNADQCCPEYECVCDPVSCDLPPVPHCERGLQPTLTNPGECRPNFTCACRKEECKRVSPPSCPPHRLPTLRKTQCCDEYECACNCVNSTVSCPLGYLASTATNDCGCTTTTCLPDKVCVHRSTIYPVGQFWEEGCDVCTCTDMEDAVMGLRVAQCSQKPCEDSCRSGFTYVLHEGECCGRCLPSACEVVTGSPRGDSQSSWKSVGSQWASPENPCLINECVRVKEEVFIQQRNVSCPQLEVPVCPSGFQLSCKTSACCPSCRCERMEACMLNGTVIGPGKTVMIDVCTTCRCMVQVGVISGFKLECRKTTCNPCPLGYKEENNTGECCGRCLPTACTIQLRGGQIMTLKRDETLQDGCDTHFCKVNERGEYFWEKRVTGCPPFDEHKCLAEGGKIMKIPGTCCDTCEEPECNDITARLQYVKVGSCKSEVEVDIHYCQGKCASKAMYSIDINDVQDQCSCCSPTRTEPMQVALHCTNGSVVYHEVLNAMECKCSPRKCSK
T2 sequence (P04275 1473-1674): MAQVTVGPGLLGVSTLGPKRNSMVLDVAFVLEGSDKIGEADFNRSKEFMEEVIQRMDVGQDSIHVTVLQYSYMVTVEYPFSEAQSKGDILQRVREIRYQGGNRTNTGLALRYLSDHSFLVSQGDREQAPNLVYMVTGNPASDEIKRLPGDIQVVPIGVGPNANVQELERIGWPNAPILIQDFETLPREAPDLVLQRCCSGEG
Sequence of A1A2 fragment (P04275 1261-1674 D1472H limits assumed): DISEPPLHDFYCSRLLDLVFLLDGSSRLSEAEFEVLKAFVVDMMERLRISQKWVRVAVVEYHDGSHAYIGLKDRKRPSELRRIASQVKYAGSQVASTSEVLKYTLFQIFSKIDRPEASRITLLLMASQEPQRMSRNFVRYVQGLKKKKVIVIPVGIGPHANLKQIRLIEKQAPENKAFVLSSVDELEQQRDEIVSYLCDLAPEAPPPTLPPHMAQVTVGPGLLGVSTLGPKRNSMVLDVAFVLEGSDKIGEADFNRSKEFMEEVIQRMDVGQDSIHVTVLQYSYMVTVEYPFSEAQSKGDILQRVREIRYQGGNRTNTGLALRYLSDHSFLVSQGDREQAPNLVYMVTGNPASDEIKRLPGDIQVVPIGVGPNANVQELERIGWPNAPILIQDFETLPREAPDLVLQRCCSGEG
T1 sequence (P04275 764-2813 limits assumed): as the sequence (P04275 764-2813 limits assumed) above
T4 sequence (P04275 1459-1674 D1472H): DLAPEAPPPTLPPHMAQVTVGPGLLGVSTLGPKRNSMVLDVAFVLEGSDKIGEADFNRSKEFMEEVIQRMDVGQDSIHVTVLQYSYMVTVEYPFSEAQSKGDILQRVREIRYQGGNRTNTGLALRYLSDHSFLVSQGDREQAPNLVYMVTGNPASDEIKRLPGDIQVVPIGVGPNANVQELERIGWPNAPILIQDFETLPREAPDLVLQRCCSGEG
T6 sequence (P04275 764-2813 limits assumed): as the sequence (P04275 764-2813 limits assumed) above

For the molecule `O=C(O)CN(CCN(CC(=O)O)CC(=O)O)CC(=O)O` [EDTA], the “effect on proteolysis of VWF” value on VWF (antibody 20 μg/ml, EDTA 10 mM per methods) was “inhibited”.
With `NC(N)=O` [urea], the “ADAMTS13 cleavage of short A2 (lacking Asp1459-His1472)” value in assay [1] is given as “cleaved it normally”.
In the case of `CN[C@H](CC(C)C)C(=O)N[C@H]1C(=O)N[C@@H](CC(N)=O)C(=O)N[C@H]2C(=O)N[C@H]3C(=O)N[C@H](C(=O)N[C@H](C(=O)O)c4cc(O)cc(O)c4-c4cc3ccc4O)[C@H](O)c3ccc(c(Cl)c3)Oc3cc2cc(c3O[C@@H]2O[C@H](CO)[C@@H](O)[C@H](O)[C@H]2O[C@H]2C[C@](C)(N)[C@H](O)[C@H](C)O2)Oc2ccc(cc2Cl)[C@H]1O` [vancomycin], on A1A2A3 (Asp1261-Ile1878), the “ADAMTS13 cleavage of A1A2A3” value is recorded as “not mimicked”.
For ristocetin, the “ADAMTS13 cleavage of short A2 (lacking Asp1459-His1472)” value in assay [1] was “unable to cleave”. For the same molecule, the “effect on ability of endogenous ADAMTS13 to cleave VWF in diluted plasma” value at VWF (1.0 mg/ml ristocetin, 10-fold diluted plasma, 37° C., compared with 1.5 M urea (FIG. 1B)) is on record as “enhanced”. On A1A2A3 (Asp1261-Ile1878), the “ADAMTS13 cleavage of A1A2A3” value was “induced ADAMTS13 to cleave”. Moreover, the “minimum ristocetin concentration producing maximum proteolysis” value at A1A2A3 (Asp1261-Ile1878) (A1A2A3, 37° C., 5 hr, increasing concentrations (FIG. 2B)) is reported as “approximately 0.8 mg/ml”. In assay [2], the “ADAMTS13 cleavage of long A2 fragment” value is given as “able to cleave”. For the same molecule, in the assay on A1A2 fragment (FIG. 3), the “efficiency of enhancing ADAMTS13 cleavage, A1A2 fragment versus long A2 domain” value is listed as “more efficiently in the A1A2 fragment”. Besides, the “ADAMTS13 cleavage of A1A2 fragment” value in the assay on A1A2 fragment (in the presence of ristocetin, 37° C., 5 hr (FIG. 3)) is listed as “able to cleave”. In addition, on Multimeric VWF (setting [4]), the “oxidation of Met1521 (methionine sulfoxide) in the A2 domain” value was “more oxidized” and the “oxidation of Met1606 (methionine sulfoxide) in the A2 domain” value was “more oxidized”. Further, the “extent of methionine oxidation in the A1 domain” value at Multimeric VWF (ristocetin versus buffer, 25 nM MPO and 50 μM H2O2 (FIG. 6B)) is given as “much less than in the A2 domain”. The “effect on ability of recombinant ADAMTS13 to cleave purified multimeric plasma VWF” value in assay [3] was “accelerated”.
